Reference: patent US20220117917A1, “PH-ACTIVATED NANOPARTICLES” (Ohio State Innovation Foundation, priority 2018, published 2022)

What was measured:
[1] = set-up: species or system mice; conditions: mouse, in vivo
Method: The tumor targeting capability of the nanoparticles was next investigated in mice. Indocyanine green (ICG) was encapsulated in the nanoparticles for in vivo imaging. […] To confirm the observation from whole animal imaging, various organs were harvested for ex vivo imaging to check the biodistribution of ICG after sacrificing the mice at 24 h. […] The antitumor efficacy and safety of the WIP1 and/or miR-21 inhibitor-laden nanoparticles were also investigated in vivo by treating orthotopic HER18R mammary tumor-bearing mice. The tumors were established by injecting 2,000,000 HER18R cells per animal into the fat pad of 6-8 week-old female nude mice. The tumor-bearing mice were divided randomly into four groups: blank nanoparticles, WIP1 inhibitor-laden nanoparticles, miR-21 inhibitor-laden nanoparticles, and WIP1+miR-21 inhibitors-laden nanoparticles. Mice were treated with 1.0 mg/kg body weight of miR-21 inhibitor and/or 5.0 mg/kg of WIP1 inhibitor encapsulated in the nanoparticles via intravenous injection when the tumor reached a volume of ˜150 mm^3 at 21 days after implantation. […] Moreover, side effect of the drug-laden or blank nanoparticles was negligible.

HER18R cells = test: Cell viability and Western blot, trastuzumab-resistant cells; type: cell-based, human; conditions: along with trastuzumab 1 μg/ml, 72 h
[2] = cited from earlier work
BT474 cells = test: Cell viability and Western blot; type: cell-based, human
Method: (§1) Immunoblotting. Immunoblotting was performed as described previously (Liu Y, et al. Nature 2015 520:697-701). Briefly, total cell lysates were solubilized in lysis buffer (50 mM Tris, pH 7.5, 150 mM NaCl, 1 mM EDTA, 0.5% NP-40, 0.5% Triton X-100, 1 mM phenylmethylsulfonyl fluoride, 1 mM sodium fluoride, 5 mM sodium vanadate, 1 μg each of aprotinin, leupeptin, and pepstatin per ml). Proteins were resolved by SDS-PAGE gels and then proteins were transferred to PVDF membranes (Bio-Rad). The membranes were blocked with 5% nonfat milk for 1 h at room temperature prior to incubation with indicated primary antibodies. Subsequently membranes were washed and incubated for 1 h at room temperature with peroxidase-conjugated secondary antibodies (Santa Cruz Biotechnology). Following several washes, chemiluminescent images of immunodetected bands on the membranes were recorded on X-ray films using the enhanced chemiluminescence (ECL) system (Perkinelmer) according to the manufacturer's instructions.
(§2) Cell viability assay. Equal numbers of cells were plated in 12 well plates in triplicate. After incubation with indicated reagents for 72 hours, cell viability was quantified using Vi-Cell cell viability analyzer (Beckman Coulter).

[3] = Electrophoretic stability assay of anti-miR21 oligonucleotide; type: in vitro ADME; conditions: 37° C.
Method: Electrophoretic gel assay. Free anti-miR21 oligonucleotide and in-MW@NP (in PBS or serum) were mixed with loading buffer, and then loaded into 2% wt agarose gel with […] ethidium bromide. Electrophoresis was conducted in 1×TEA buffer at 80 V for 10 min. The result gels were analyzed using a UV illuminator (FluorChem™ E System, CA, USA) to show its location of anti-miR21 oligonucleotide.

MDA-MB453 cells = test: Cell viability; type: cell-based, human; conditions: 72 h; mutant p53
Method: as §2

HER18 cells = test: Cell viability and Western blot; type: cell-based, human
Method: as §1, §2

[4] = cited from earlier work; remark: listed apart in the source
Wip1 = biological target: T1, Wip1 (Homo sapiens, UniProt O15297); conditions: cited from earlier work
T1 sequence (O15297 1-605): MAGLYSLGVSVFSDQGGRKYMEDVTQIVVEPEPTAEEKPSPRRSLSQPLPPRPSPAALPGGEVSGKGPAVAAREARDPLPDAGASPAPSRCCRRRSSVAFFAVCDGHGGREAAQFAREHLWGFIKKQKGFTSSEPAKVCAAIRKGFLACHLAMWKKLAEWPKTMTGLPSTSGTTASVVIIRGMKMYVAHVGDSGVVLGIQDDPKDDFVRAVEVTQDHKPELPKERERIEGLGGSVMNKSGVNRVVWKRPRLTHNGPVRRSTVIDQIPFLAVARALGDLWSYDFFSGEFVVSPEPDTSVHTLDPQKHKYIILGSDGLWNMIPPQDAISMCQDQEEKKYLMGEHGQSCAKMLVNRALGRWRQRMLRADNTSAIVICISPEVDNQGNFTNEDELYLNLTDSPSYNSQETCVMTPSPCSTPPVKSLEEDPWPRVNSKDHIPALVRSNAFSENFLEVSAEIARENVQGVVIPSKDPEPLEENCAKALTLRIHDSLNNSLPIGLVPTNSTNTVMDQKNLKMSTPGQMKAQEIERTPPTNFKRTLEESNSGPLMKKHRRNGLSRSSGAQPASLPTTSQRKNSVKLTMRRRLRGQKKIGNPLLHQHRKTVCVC

Compound: CC1(C)C(/C=C/C=C/C=C/C=C2\N(CCCCS(=O)(=O)O)c3ccc4ccccc4c3C2(C)C)=[N+](CCCCS(=O)(=O)[O-])c2ccc3ccccc3c21 [free ICG, Indocyanine green]
- ICG fluorescence in liver [1]: weak fluorescence
- ICG signal / localization [1]: no notable signal

Compound: anti-miR-21: anti-miR-21 oligonucleotide; in some embodiments UCAACAUCAGUCUGAUAAGCUAG (SEQ ID NO: 5) (further chemistry not given here)
- sensitization to trastuzumab (HER18R cells): sensitized
- stability in blood ([2]; in vivo): relatively unstable in blood
- cell proliferation and viability (BT474 cells; HER2+/p53-mutant cells with 17q23 amplification): significantly reduced the cell proliferation and viability
- onset of degradation [3]: started to degrade in a few minutes
- time oligonucleotide observable ([3]; up to 36 h): less than 2 h

Compound: Cc1ncc(Cl)cc1NCc1ccc(C(=O)N[C@@H](CC2CCCC2)C(=O)NC2CC2)s1 [GSK2830371]
- sensitization to trastuzumab (HER18R cells): sensitized
- bioavailability in vivo [2]: poor bioavailability in vivo
- sensitivity (cell viability) (MDA-MB453 cells): notably insensitive
- sensitivity (cell viability) (HER18 cells; 72 h, wildtype p53): very sensitive
- phosphorylated CHK2 and p21 levels (HER18 cells; immunoblotting): significantly increased the levels of phosphorylated CHK2 and the p53-induced p21
- sensitivity (cell viability) (BT474 cells; 72 h, mutant p53): notably insensitive
- solubility in water [4]: poor solubility in water
- selectivity for Wip1 over other phosphatases (Wip1): selectivity for Wip1 over 21 other phosphatases
